Measurements from patent EP4759807A1, “PROTEOLYSIS TARGETING CHIMERA COMPOUND FOR DEGRADING IRAK4 AND USE THEREOF” (Shenzhen Zhongge Biological Technology Co., Ltd., priority 2023, dated 2025).

Target: T1, IRAK4 (Homo sapiens, UniProt Q9NWZ3)
T1 sequence (Q9NWZ3 1-460): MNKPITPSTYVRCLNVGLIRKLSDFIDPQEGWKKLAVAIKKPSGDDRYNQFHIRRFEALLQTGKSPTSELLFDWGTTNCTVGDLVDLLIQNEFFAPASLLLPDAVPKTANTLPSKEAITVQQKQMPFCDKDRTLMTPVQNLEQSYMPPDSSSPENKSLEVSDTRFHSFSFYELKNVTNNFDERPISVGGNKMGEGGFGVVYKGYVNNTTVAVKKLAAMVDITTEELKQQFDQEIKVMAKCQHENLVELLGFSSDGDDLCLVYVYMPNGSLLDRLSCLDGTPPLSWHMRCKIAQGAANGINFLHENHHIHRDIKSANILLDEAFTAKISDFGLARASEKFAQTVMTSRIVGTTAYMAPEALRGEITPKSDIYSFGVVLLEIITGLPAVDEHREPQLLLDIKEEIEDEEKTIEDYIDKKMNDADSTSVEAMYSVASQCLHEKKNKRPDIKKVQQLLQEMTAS
Assay: Hibit fluorescence detection of proteolysis (IRAK4-HiBiT in HEK293T cells)
Type: cell-based
Set-up: host or cells: HEK293T (ATCC)
Conditions: for Dmax: HEK-293T; for DC50: IRAK4-HiBiT, HEK293T cells, 24 h
Procedure: Utilizing HiBiT tag technology, the HiBiT tag-containing sequence (Seq. ID. No. 1, Beijing Tsingke Biotech Co., Ltd.) was connected to the IRAK4 plasmid (Seq. ID. No. 2, Beijing Tsingke Biotech Co., Ltd.), and the plasmid was transfected into HEK293T cells (ATCC). […] The 6-well plate that was incubated overnight was taken out. After the plate was left at room temperature for 15 min, the obtained mixture was added dropwise to the 6-well plate. […] Culture was performed at 37°C and 5% CO2 for 24 h. The 384-well plate was taken out and equilibrated to room temperature. 40 µL of Nano-Glo® HiBiT Lytic Detection System (Promega N3030) was added to each well and incubated at room temperature for 15 min. […] Prism 9.3 software was used to perform fitting analysis for data, and non-linear fitting (non-liner inhibitor (Bell-shaped)) and four parameters (4 parameter) were used, and the parameters was as follows: Span1 = Plateau1−Dip [formula] Span2 = Plateau2−Dip [formula] Section1 = Span1/(1+10^(∧)((LogEC50_1−X)*nH1)) [formula] Section2 = Span2/(1+10^(∧)((X−LogEC50_2)*nH2)) [formula]
The equation was as follows: Y=Dip+Section1+Section2. • Seq. ID. No. 1 ([…]), other DNA, synthetic construct, sequence length 33; • Seq. ID. No. 2 [formula]

Structure (SMILES)	Dmax	DC50
CN(CC1CCN(CCC#Cc2cccc3c2n(C)c(=O)n3C2CCC(=O)NC2=O)CC1)C[C@H]1CC[C@H](n2cc(-n3cc(-c4cnn5ccc(N6CCOCC6)nc45)nn3)c(C(F)F)n2)CC1 (stereo partly shown) [Example 25]	< 60%	< 0.5 nM
Cn1c(=O)n(C2CCC(=O)NC2=O)c2cccc(NCCC3CC4(C3)CN(C[C@H]3CC[C@H](n5cc(-n6cc(-c7cnn8ccc(N9CCOCC9)nc78)nn6)c(C(F)F)n5)CC3)C4)c21 (stereo partly shown) [Example 26, 3-(4-((2-(2-(((1r,4r)-4-(3-(difluoromethyl)-4-(4-(5-morpholinopyrazolo[1,5-a]pyrimidin-3-yl)-1H-1,2,3-triazol-1-yl)-1H-pyrazol-1-yl)cyclohexyl)methyl)-2-azaspiro[3.3]heptan-6-yl)ehtyl)amino)-3-methyl-2-oxo-2,3-dihydro-1H-benzo[d]imidazol-1-yl)piperidine-2,6-dione]	70 to 80%	< 0.5 nM
Cn1c(=O)n(C2CCC(=O)NC2=O)c2cccc(C#CC3CN(C[C@H]4CC[C@H](n5cc(-n6cc(-c7cnn8ccc(N9CCOCC9)nc78)nn6)c(C(F)F)n5)CC4)C3)c21 (stereo partly shown) [Example 27]	60 to 70%	< 0.5 nM
O=C1CCC(NC(=O)c2ccc(N3CCN(C[C@H]4CC[C@H](n5cc(-n6cc(-c7cnn8ccc(N9CCOCC9)nc78)nn6)c(C(F)F)n5)CC4)CC3)cc2F)C(=O)N1 (stereo partly shown) [Example 28]	60 to 70%	> 5 nM
Cn1c(=O)n(C2CCC(=O)NC2=O)c2cccc(C(=O)N3CCC(NC[C@H]4CC[C@H](n5cc(-n6cc(-c7cnn8ccc(N9CCOCC9)nc78)nn6)c(C(F)F)n5)CC4)CC3)c21 (stereo partly shown) [Example 29]	70 to 80%	> 5 nM
NC(=O)c1cnn2c(-c3cn(-c4cn([C@H]5CC[C@H](CN6CCN(c7ccc(C(=O)NC8CCC(=O)NC8=O)c(F)c7)CC6)CC5)nc4C(F)F)nn3)ccc2c1 (stereo partly shown) [Example 31]	70 to 80%	> 5 nM
Cn1c(=O)n(C2CCC(=O)NC2=O)c2cccc(N3CCC4(CCN(C[C@H]5CC[C@H](n6cc(-n7cc(-c8cnn9ccc(N%10CCOCC%10)nc89)nn7)c(C(F)F)n6)CC5)C4)C3)c21 (stereo partly shown) [Example 32, 3-(4-((1r,4r)-4-(3-(difluoromethyl)-4-(4-(5-morpholinopyrazolo[[1,5-a]pyrimidin-3-yl)-1H-1,2,3-triazol-1-yl)-1H-pyrazol-1-yl)cyclohexylmethyl)-2,7-diazaspiro[4.4]non-2-yl)-3-methyl-2-oxo-2,3-dihydro-1H-benzo[d]imidazol-1-yl)piperidine-2,6-dione]	70 to 80%	< 0.5 nM
Cn1c(=O)n(C2CCC(=O)NC2=O)c2cccc(N3CC4CN(C[C@H]5CC[C@H](n6cc(-n7cc(-c8cnn9ccc(N%10CCOCC%10)nc89)nn7)c(C(F)F)n6)CC5)CC4C3)c21 (stereo partly drawn) [Example 33, 3-(4-((1R,4R)-4-(3-(difluoromethyl)-4-(4-(5-morpholinopyrazolo[[1,5-a]pyrimidin-3-yl)-1H-1,2,3-triazol-1-yl)-1H-pyrazol-1-yl)cyclohexyl)methylhexahydropyrrolo[3,4-c]pyrrol-2(1H)-yl)-3-methyl-2-oxo-2,3-dihydro-1H-benzo[d]imidazol-1-yl)piperidine-2,6-dione]	60 to 70%	< 0.5 nM
Cn1c(=O)n(C2CCC(=O)NC2=O)c2cccc(N3CCOC4(CCN(C[C@H]5CC[C@H](n6cc(-n7cc(-c8cnn9ccc(N%10CCOCC%10)nc89)nn7)c(C(F)F)n6)CC5)CC4)C3)c21 (stereo partly shown) [Example 38]	< 60%	< 0.5 nM
Cn1c(=O)n(C2CCC(=O)NC2=O)c2cccc(N3CCN(C4CCN(C[C@H]5CC[C@H](n6cc(-n7cc(-c8cnn9ccc(N%10CCOCC%10)nc89)nn7)c(C(F)F)n6)CC5)CC4)CC3)c21 (stereo partly shown) [Example 40]	> 80%	< 0.5 nM
Cn1c(=O)n(C2CCC(=O)NC2=O)c2cccc(N3CCC4(CC3)CN(C[C@H]3CC[C@H](n5cc(-n6cc(-c7cnn8ccc(N9CCOCC9)nc78)nn6)c(C(F)F)n5)CC3)CCO4)c21 (stereo partly shown) [Example 41]	70 to 80%	1 to 5 nM
Cn1c(=O)n(C2CCC(=O)NC2=O)c2cccc(N3CC(N4CCN(C[C@H]5CC[C@H](n6cc(-n7cc(-c8cnn9ccc(N%10CCOCC%10)nc89)nn7)c(C(F)F)n6)CC5)CC4)C3)c21 (stereo partly shown) [Example 42, 3-(4-(3-(4-(((1r,4r)-4-(3-(difluoromethyl)-4-(4-(5-morpholinopyrazolo[1,5-a]pyrimidin-3-yl)-1H-1,2,3-triazol-1-yl)-1H-pyrazol-1-yl)cyclohexyl)methyl)piperazin-1-yl)azetidin-1-yl)-3-methyl-2-oxo-2,3-dihydro-1H-benzo[d]imidazol-1-yl)piperidine-2,6-dione]	< 60%	< 0.5 nM
Cn1c(=O)n(C2CCC(=O)NC2=O)c2cccc(N3CC4(CCN(C[C@H]5CC[C@H](n6cc(-n7cc(-c8cnn9ccc(N%10CCOCC%10)nc89)nn7)c(C(F)F)n6)CC5)CC4)C3)c21 (stereo partly shown) [Example 43, 3-(4-(7-(((1r,4r)-4-(3-(difluoromethyl)-4-(4-(5-morpholinopyrazolo[1,5-a]pyrimidin-3-yl)-1H-1,2,3-triazol-1-yl)-1H-pyrazol-1-yl)cyclohexyl)methyl)-2,7-diazaspiro[3.5]nonan-2-yl)-3-methyl-2-oxo-2,3-dihydro-1H-benzo[d]imidazol-1-yl)piperidine-2,6-dione]	> 80%	< 0.5 nM
Cn1c(=O)n(C2CCC(=O)NC2=O)c2cccc(N3CCN(C4CN(C[C@H]5CC[C@H](n6cc(-n7cc(-c8cnn9ccc(N%10CCOCC%10)nc89)nn7)c(C(F)F)n6)CC5)C4)CC3)c21 (stereo partly shown) [Example 44]	> 80%	< 0.5 nM
Cn1c(=O)n(C2CCC(=O)NC2=O)c2cccc(N3CCC4(CCN(C[C@H]5CC[C@H](n6cc(-n7cc(-c8cnn9ccc(N%10CCOCC%10)nc89)nn7)c(C(F)F)n6)CC5)CC4)C3)c21 (stereo partly shown) [Example 45]	70 to 80%	< 0.5 nM
C[C@@H]1CN(C[C@H]2CC[C@H](n3cc(-n4cc(-c5cnn6ccc(N7CCOCC7)nc56)nn4)c(C(F)F)n3)CC2)CCN1c1cccc2c1n(C)c(=O)n2C1CCC(=O)NC1=O (stereo partly drawn) [Example 46, 3-(4-((R)-4-(((1r,4R)-4-(3-(difluoromethyl)-4-(4-(5-morpholinopyrazolo[1,5-a]pyrimidin-3-yl)-1H-1,2,3-triazol-1-yl)-1H-pyrazol-1-yl)cyclohexyl)methyl)-2-methylpiperazin-1-yl)-3-methyl-2-oxo-2,3-dihydro-1H-benzo[d]imidazol-1-yl)piperidine-2,6-dione]	70 to 80%	< 0.5 nM
Cn1c(=O)n(C2CCC(=O)NC2=O)c2cccc(N3CCC4(CC3)CN(C[C@H]3CC[C@H](n5cc(-n6cc(-c7cnn8ccc(N9CCOCC9)nc78)nn6)c(C(F)F)n5)CC3)C4)c21 (stereo partly shown) [Example 47]	70 to 80%	< 0.5 nM
Cn1c(=O)n(C2CCC(=O)NC2=O)c2cccc(N3C4CCC3CN(C[C@H]3CC[C@H](n5cc(-n6cc(-c7cnn8ccc(N9CCOCC9)nc78)nn6)c(C(F)F)n5)CC3)C4)c21 (stereo partly shown) [Example 48, 3-(4-((1r,4r)-4-(3-(difluoromethyl)-4-(4-(5-morpholinopyrazolo[[1,5-a]pyrimidin-3-yl)-1H-1,2,3-triazol-1-yl)-1H-pyrazol-1-yl)cyclohexyl)-3,8-diazabicyclo[3.2.1]oct-8-yl)-3-methyl-2-oxo-2,3-dihydro-1H-benzo[d]imidazol-1-yl)piperidine-2,6-dione]	60 to 70%	> 5 nM
Cn1c(=O)n(C2CCC(=O)NC2=O)c2cccc(N3CC4CCC(C3)N4C[C@H]3CC[C@H](n4cc(-n5cc(-c6cnn7ccc(N8CCOCC8)nc67)nn5)c(C(F)F)n4)CC3)c21 (stereo partly drawn) [Example 49, 3-(4-((1R,4R)-4-(3-(difluoromethyl)-4-(4-(5-morpholinopyrazolo[[1,5-a]pyrimidin-3-yl)-1H-1,2,3-triazol-1-yl)-1H-pyrazol-1-yl)cyclohexyl)-3,8-diazabicyclo[3.2.1]oct-3-yl)-3-methyl-2-oxo-2,3-dihydro-1H-benzo[d]imidazol-1-yl)piperidine-2,6-dione]	70 to 80%	1 to 5 nM
C[C@@H]1CN(c2cccc3c2n(C)c(=O)n3C2CCC(=O)NC2=O)CCN1C[C@H]1CC[C@H](n2cc(-n3cc(-c4cnn5ccc(N6CCOCC6)nc45)nn3)c(C(F)F)n2)CC1 (stereo partly shown) [Example 50]	60 to 70%	0.5 to 1 nM
